Experimental data published in patent publication US7655751B2, “Epidermal growth factor receptor-derived peptides” (Green Peptide Co., Ltd., priority 2004, dated 2010).
Peptide text beside a SMILES is read from it.

Test system: EGFR+ tumor cells
Experiment: 51Cr-release assay: HLA-restricted and peptide-specific cytotoxicity (inhibition and competition assays)
Assay type: cell-based, human
Details: 6 h 51Cr-release assay
Protocol: The values represent the mean ±SD of specific lysis (%).
Furthermore, the HLA-restricted and peptide-specific cytotoxicity were confirmed by the inhibition and competition assays, respectively.
For the inhibition assay, 20 μg/ml of anti-HLA-class I (W6/32, IgG2a), anti-HLA-class II (H-DR-1, IgG2a), anti-CD8 (Nu-Ts/c, IgG2a), anti-CD4 (Nu-Th/i, IgG1), and anti-CD14 (JML-H14, IgG2a) (as a negative control) mAbs were used. For the competition assay to study the peptide specific cytotoxicity, unlabeled C1R-2402 cells pulsed with the corresponding peptide or the HIV peptide as a negative control were added to the ^51Cr-release assay at a cold to hot target cell ratio of 10 to 1. The values represent the mean ±SD of specific lysis (%), and two-tailed Student's-t test was employed for the statistical analysis.

CC[C@H](C)[C@H](NC(=O)CNC(=O)[C@H](CC(C)C)NC(=O)[C@H](CC(C)C)NC(=O)[C@H](CCC(N)=O)NC(=O)[C@H](CCC(N)=O)NC(=O)[C@H](CC(=O)O)NC(=O)[C@H](CCCNC(=N)N)NC(=O)[C@H](CC(C)C)NC(=O)[C@H](Cc1ccc(O)cc1)NC(=O)[C@@H](N)CCCNC(=N)N)C(=O)O [HIV peptide] (H-RYLRDQQLLGI-OH)
HLA-A24-restricted cytotoxicity of PBMCs stimulated with the peptide: did not show the HLA-A24-restricted cytotoxicity
